pIC50: −log10 of the molar value.
What was measured:
Nucleic Acid = test: Compound was tested in vitro for DNA alkylation intensity; value is given as; assay type: functional
HeLa = test: Tested in vitro for cytotoxicity against He La cell line in human cervical carcinoma; assay type: functional
MM96L = test: Tested in vitro for cytotoxicity against MM96L cell line in human melanoma; assay type: functional
MM418 = test: Tested in vitro for cytotoxicity against MM418c15a cell line in human melanoma with high melanin content; assay type: functional
CI80-13S cell line = test: Tested in vitro for cytotoxicity against CI80-13S cell line in DNA cross-linking resistant human ovarian carcinoma; assay type: functional
B16 [1] = test: Tested in vitro for cytotoxicity against B16 cell line in murine melanoma activity expressed in IC50; assay type: functional, cell-based; details: Mus musculus
B16 [2] = test: Tested in vitro for cytotoxicity against B16 cell line in murine melanoma; assay type: functional, Mus musculus

Compound | DNA alkylation (Nucleic Acid) | Cytotoxicity (HeLa) [µM] | Cytotoxicity (MM96L) [µM] | Cytotoxicity (MM418) [µM] | Cytotoxicity (CI80-13S cell line) [µM] | pIC50 (B16 [1]) | Cytotoxicity (B16 [2]) [µM]
Oc1ccc(CCI)cc1 | value is given as | 33 | 43 |  |  |  | 
COc1ccc(CCBr)cc1 |  | 220 | 520 |  |  |  | 
OCCc1ccc(O)cc1 [TYROSOL] |  | 1420 | 905 |  |  |  | 
OCCc1cccc(O)c1 |  | 7530 | 2530 |  |  |  | 
COc1ccc(CCI)cc1 |  | 22 | 25 |  |  |  | 
Oc1ccc(CCBr)cc1 | value is given as | 18 | 16 | 25 | 27 | 4.49 | 44
Oc1cccc(CCBr)c1 |  | 75 | 60 |  |  |  | 
COc1ccc(CCO)cc1 |  | 4420 | 3330 |  |  |  | 
Oc1cccc(CCI)c1 |  | 19 | 20 |  |  |  | 
COc1ccc(CCCl)cc1 |  | 670 | 1970 |  |  |  | 
Oc1cccc(CCCl)c1 |  | 450 | 450 |  |  |  | 
Oc1ccc(CCCl)cc1 |  | 32 | 42 |  |  |  | 
CS(C)(=O)=O [DIMETHYL SULFONE] |  | 35 | 56 | 58 | 59 |  | 
